Source: patent EP0319906A2, “Novel quinoline derivatives, processes for preparation thereof and antibacterial agent containing them” (Dainippon Pharmaceutical Co., Ltd., priority 1987, dated 1989)
Values after ≈ are worked out from the molar mass of the structure shown.

Tests used:
M. buccale CH-20249 = test: Antimycoplasma activity, twofold agar dilution MIC; format: cell-based; settings: 48 h; M. buccale CH-20249; Chanock agar, 37 °C for 2 days, anaerobically; calculated for free base; read-out: minimum inhibitory concentrations (MIC)
M. fermentans PG-18 = test: Antimycoplasma activity, twofold agar dilution MIC; format: cell-based; settings: Mycoplasmopsis fermentans, PG18, 48 h; M. fermentans PG-18; Chanock agar, 37 °C for 2 days, anaerobically; calculated for free base; read-out: minimum inhibitory concentrations (MIC)
M. hominis PG-21 = test: Antimycoplasma activity, twofold agar dilution MIC; format: cell-based; settings: Metamycoplasma hominis, PG21, 48 h; M. hominis PG-21; Chanock agar, 37 °C for 2 days, anaerobically; calculated for free base; read-out: minimum inhibitory concentrations (MIC)
M. hyorhinis BST-7 = test: Antimycoplasma activity, twofold agar dilution MIC; format: cell-based; settings: Mesomycoplasma hyorhinis, BST7, 48 h; M. hyorhinis BST-7; Chanock agar, 37 °C for 2 days, aerobically; calculated for free base; read-out: minimum inhibitory concentrations (MIC)
M. orale CH-19299 = test: Antimycoplasma activity, twofold agar dilution MIC; format: cell-based; settings: po, 48 h; M. orale CH-19299; Chanock agar, 37 °C for 2 days, anaerobically; calculated for free base; read-out: minimum inhibitory concentrations (MIC)
M. pneumoniae Mac = test: Antimycoplasma activity, twofold agar dilution MIC; format: cell-based; settings: Mycoplasmoides pneumoniae, 168 h; M. pneumoniae Mac; Chanock agar, 37 °C for 7 days, aerobically; calculated for free base; read-out: minimum inhibitory concentrations (MIC)
in vivo = settings: mouse, po, orally given to male mice (ddY), dead mice counted after 7 days, Behrens-Kaerber method, read-out: LD₅₀
Method: A suspension containing each of compounds of this invention in various concentrations was orally given to male mice (ddY) at a dose of 0.1 ml per 10 g of body weight. The number of dead mice was counted after 7 days, and the value of median lethal dose (LD₅₀, mg/kg) was calculated in accordance with the Behrens-Kaerber method.

Cc1c(F)c(N2C[C@@H](C)N[C@@H](C)C2)c(F)c2c1c(=O)c(C(=O)O)cn2C1CC1 [Compound 1, 1-cyclopropyl-6,8-difluoro-5-methyl-7-(cis-3,5-demethyl-1-piperazinyl)-1,4-dihydro-4-oxoquinoline-3-carboxylic acid]
MIC (M. buccale CH-20249): 0.025 µg/mL (≈ 0.0639 µM) | MIC (M. fermentans PG-18): 0.025 µg/mL (≈ 0.0639 µM) | MIC (M. hominis PG-21): 0.05 µg/mL (≈ 0.128 µM) | MIC (M. hyorhinis BST-7): 0.025 µg/mL (≈ 0.0639 µM) | MIC (M. orale CH-19299): 0.2 µg/mL (≈ 0.511 µM) | MIC (M. pneumoniae Mac): 0.05 µg/mL (≈ 0.128 µM) | LD50 at 168 h (in vivo): > 2000 mg/kg
